What was measured:
[1] = test system: greenhouse red spidermite (Tetranychus urticae); test: Tetranychus test, OP-resistant (spray treatment); assay type: in vivo; conditions: application rate of 100 g/ha; sprayed bean leaf discs
Protocol: Tetranychus Test, OP-Resistant (Spray Treatment)
• Solvents: 78.0 parts by weight of acetone • 1.5 parts by weight of dimethylformamide • Emulsifier: 0.5 part by weight of alkylaryl polyglycol ether
To produce a suitable preparation of active compound, 1 part by weight of active compound is mixed with the stated amounts of solvent and emulsifier, and the concentrate is diluted with emulsifier-containing water to the desired concentration.
Discs of the leaves of beans (Phaseolus vulgaris) which are infested by all stages of the greenhouse red spidermite (Tetranychus urticae) are sprayed with an active compound preparation of the desired concentration.
After the desired period of time, the effect in % is determined. 100% means that all spidermites have been killed; 0% means that none of the spidermites have been killed.

[2] = logP determination by HPLC (formic acid method); assay type: physicochemical; conditions: reversed-phase HPLC column (C18), pH 3.4, HPLC on reversed-phase column (C18), acidic range (pH 3.4), 55° C.; read-out: logP (HCOOH)
Outline: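 Reversed-phase C18 HPLC at 55 °C, pH 3.4, with a 4.25 min gradient from 10% to 95% acetonitrile (formic acid-modified water/acetonitrile phases). logP was derived from retention time by linear interpolation between unbranched alkan-2-ones (C3-C16) of known logP.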

[3] = test system: green peach aphid (Myzus persicae); test: Myzus test (spray treatment); assay type: in vivo; conditions: foliar, application rate of 500 g/ha, sprayed Chinese cabbage leaf discs, read-out: activity (effect in %, aphids killed)
Outline: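 Chinese cabbage leaf discs heavily infested with all stages of the aphid are sprayed with compound formulated in acetone/dimethylformamide with alkylaryl polyglycol ether emulsifier, diluted in emulsifier-containing water. After a set period, kill is scored in %: 100% all aphids dead, 0% none.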

Boophilus microplus = Boophilus microplus test (injection); assay type: in vivo; conditions: application rate of 20 μg/animal; injected into the abdomen
Protocol: Boophilus microplus Test (Injection) • Solvent: Dimethyl sulphoxide To produce a suitable preparation of active compound, 1 part by weight of active compound is mixed with the stated amounts of solvent, and the concentrate is diluted with water to the desired concentration. The solution of active compound is injected into the abdomen (Boophilus microplus), and the animals are transferred into dishes and stored in a climatized room. The activity is checked by examination for deposition of fertile eggs, After the desired period of time, the effect in % is determined. 100% means that none of the ticks has laid fertile eggs.

chromatographic logP [2]	Compound	activity (effect in %, spidermites killed) [1] [%]	pest or weed control at 500 g/ha [3] [%]	activity (effect in %, deposition of fertile eggs) (Boophilus microplus) [%]
1.69	Cc1nc(-c2cccnc2)sc1-c1ccn(Cc2ccccn2)n1 [Ex. No. 27]	≥ 80	≥ 80	
2.81	FC(F)(F)c1cccc(-c2cnc(-c3cccnc3)s2)n1 [Ex. No. 49]		≥ 80	≥ 80
0.83	COCc1nccc(-c2cc(-c3cccnc3)nn2C)n1 [compound 167]		≥ 80	
0.95	Cn1nc(-c2cccnc2)cc1C1=NN(c2ncccn2)CCO1 [compound 168]		≥ 80	
1.64	Cn1nc(-c2cccnc2)cc1-c1ccn(-c2ccccn2)n1 [compound 169]		≥ 80	
0.42	Cn1nc(-c2cccnc2)cc1-c1cc[nH]n1 [compound 170]		≥ 80	
0.87	Cn1nc(-c2cccnc2)cc1-c1ccnc(-c2ccccn2)n1 [compound 171]		≥ 80	

Reference: patent US9451775B2, “Heterocyclic compounds as pesticides” (Bayer Intellectual Property GmbH, priority 2008, dated 2016)
